What was measured:
[1] = Systemic exposure: ciprofloxacin in plasma after gel application; assay type: in vivo, chinchilla; settings: after hydrogel treatment
Method: The blood levels of Cip were investigated by collection of plasma samples at predetermined intervals from the transverse sinuses of chinchillas after hydrogel treatment.
NTHi OM chinchilla model and pharmacokinetics. All procedures and manipulations were performed using sedation analgesia under isoflurane chamber induction followed by mask inhalation of 1-3% isoflurane in accordance with approved IACUC protocols at Boston Children's Hospital. […] Isolates of NTHi grown to the mid-log phase were diluted in Hanks' balanced salt solution (HBSS), and about 25 to 75 CFU in […] were directly introduced into each middle ear through the dorsal aspect of the tympanic bullae under aseptic conditions. […] Serial plasma samples were also obtained through the […] during the experiment to determine systemic drug levels.

[2] = assay type: in vivo, chinchilla; settings: healthy / OM infected chinchillas
Method: Histopathology. Hydrogel formulations were administered onto the tympanic membrane of live healthy/OM chinchillas. After 7 days later, they were euthanized as described elsewhere. The TMs were then excised and immediately fixed in 10% neutral buffered formalin overnight. The sectioned TMs (˜10 μm thick) were stained with hematoxylin and eosin, and evaluated by light microscopy in a blinded fashion.

H. influenza = settings: stated without test or source; cited from earlier work
S. pneumoniae = settings: stated without test or source; cited from earlier work
[3] = Solubility / dissolution in poloxamer-CPE formulations; assay type: physicochemical

| highest amount of CTX that can be dissolved in the P188-CPEs formulation while maintaining the desired rheological properties [3] | highest amount of CTX that can be dissolved in the P188-CPEs formulation as a powder form within a short time (<1 minute) ([3]; powder form, <1 minute) | Compound | ciprofloxacin in the bloodstream at any time point throughout the course of treatment [1] | ciprofloxacin in the bloodstream at any time point throughout the course of treatment ([1]; listed as Cip) | appearance of H&E-stained TM sections after 7 days [2] | minimum inhibitory concentration for middle ear infections (H. influenza) | minimum inhibitory concentration for middle ear infections (S. pneumoniae) |
| --- | --- | --- | --- | --- | --- | --- | --- |
|  |  | O=C(O)c1cn(C2CC2)c2cc(N3CCNCC3)c(F)cc2c1=O [ciprofloxacin] | no Ciprofloxacin was detectable | no Cip was detectable | much thicker than healthy TM | about 4 μg/mL | about 4 μg/mL |
| 42.6% | 28% | CO/N=C(\C(=O)N[C@@H]1C(=O)N2C(C(=O)O)=C(CSc3nc(=O)c(=O)[nH]n3C)CS[C@H]12)c1csc(N)n1 [CTX, ceftriaxone sodium] |  |  |  |  |  |
